Experimental data: US20220009988A1, “PEPTIDE MODULATORS OF THE INTERACTION BETWEEN HUMAN C-PEPTIDE AND HUMAN ELASTIN RECEPTOR FOR THERAPEUTIC USE” (Biotempt B.V., priority 2017, published 2022)

What was measured:
[1] = test system: glucose-induced vascular dysfunction; settings: cited from earlier work; for potency on vascular dysfunction relative to native C-peptide / prevention of vascular dysfunction (active / inactive): skin chamber granulation tissue model in rats; for normalization (%) of 30 mM glucose-induced vascular dysfunction: rats, FIG. 1 adapted from Ido et al. 1997
[2] = test system: human renal tubular cells; settings: cited from earlier work
[3] = test system: cell membrane-bound C-peptide; settings: cited from earlier work
[4] = test system: MAP kinase signaling pathways; settings: cited from earlier work
Na^+K^+ATPase = settings: rat renal tubule cells; cited from earlier work
CD4+ immune cells = test: classical Boyden chamber experiment, migration of CD4+ immune cells; type: cell-based; settings: V14-peptide at 1.3 microM; C-peptide at 10 nM
From the text: Moreover, additional examples of fragments of the human C-peptide are provided herein and ^14, all bearing a mid-portion hexapeptide 12 SEQ ID NO:34 (LGGGPG) 17, that all prevented vascular dysfunction whereas other human C-peptide fragments, wherein the hexapeptide mid-portion was disrupted, were found not active. […] Human C-peptide and its xGxxPG containing fragments may thus be considered an unexpected species of the genus of a larger class of peptides: elastin peptides capable of elastin receptor activation, whereby excess C-peptide may be meddling with elastin receptor mediated tissue repair, modulating chronic-low grade inflammation, IR and hypertension. […] This provides a substantial jump in our understanding of the causes of metabolic syndrome and other lifestyle- or age-related conditions of IR. […] It is provided to do these tests with synthetic human C-peptide variants or fragments, provided with or without the sequence GxxP, to study binding, including classical elastin receptor antagonist V14 peptide to study inhibition of binding. Similarly, one can do the C-peptide tests in a skin chamber granulation tissue model of vascular function ^14, or test synthetic, inducibly or constitutively expressed C-peptide in established models of atherosclerosis, Neu-1 mediated IR or PPCA mediated hypertension ^7-9.

bioactivity of C-peptide = test: preliminary in-vitro inhibition of bioactivity of C-peptide; settings: preliminary in-vitro results
[5] = biological target: human elastin receptor (elastin binding protein, EBP) on CD4+ immune cells (human)

D--1EAEDLQVGQVELGGGPGAGSLQPLALEGSLQ31 [enantio C-peptide]
potency on vascular dysfunction relative to native C-peptide [1]: equipotent to native C-peptide

DLQVGQVELGGGPGAGSLQPL [SEQ ID NO:20]
normalization (%) of 30 mM glucose-induced vascular dysfunction [1]: significant normalization

DLQVGQVELGGGPGAGSLQPLALEGSLQ [SEQ ID NO:10]
normalization (%) of 30 mM glucose-induced vascular dysfunction [1]: significant normalization

EAEDLQVGQVELGGGPGAGSLQPL (EAEDLQVGQVELGGGPGAGSLQPLAL) [SEQ ID NO:17]
normalization (%) of 30 mM glucose-induced vascular dysfunction [1]: significant normalization

EAENPQAGAVELGGGLGGLQALALEGPPQ [pig C-peptide]
prevention of vascular dysfunction (active / inactive) [1]: inactive

EGSLQ [SEQ ID NO:6]
intracellular Ca2+ [2]: may induce intracellular Ca2+ increases | displacement of cell membrane-bound C-peptide [3]: displaces | MAP kinase signaling pathways [4]: stimulates

ELGGGPGAG [SEQ ID NO:9]
Na^+K^+ATPase activity (Na^+K^+ATPase): stimulate

ELGGGPGAGSLQPL [SEQ ID NO:176]
normalization (%) of 30 mM glucose-induced vascular dysfunction [1]: significant normalization

EVARQ [SEQ ID NO:7]
intracellular Ca2+ [2]: may induce intracellular Ca2+ increases

EVEDPQVPQLELGGGPEAGDLQTLALEVARQ [Rat C-peptide]
prevention of vascular dysfunction (active / inactive) [1]: active

GGGPGAG [SEQ ID NO:8]
normalization (%) of 30 mM glucose-induced vascular dysfunction [1]: normalize

GQVELGGGPGAGSLQPLALEGSLQ [SEQ ID NO:13]
normalization (%) of 30 mM glucose-induced vascular dysfunction [1]: significant normalization

LGGGPGAGSLQPLALEGSLQ [SEQ ID NO:14]
normalization (%) of 30 mM glucose-induced vascular dysfunction [1]: significant normalization

QLSGELALPQLSGAGPGGGLEVQGVQLDEAE (retro C-peptide)
potency on vascular dysfunction relative to native C-peptide [1]: equipotent to native C-peptide

VGQVELGGGPGAGSLQPL [SEQ ID NO:175]
normalization (%) of 30 mM glucose-induced vascular dysfunction [1]: significant normalization

VVGSPSAQDEASPL [V14-peptide]
C-peptide-induced CD4-migration inhibited, antagonized and diminished (CD4+ immune cells): > 50% | inhibition of bioactivity of C-peptide (bioactivity of C-peptide): inhibition

human C-peptide
migration of CD4+ immune cells in a classical Boyden chamber experiment (% increase of migration) [5]: 100
